From US8383637B2, “2-amino-quinazoline derivatives useful as inhibitors of β-secretase (BACE)” (Jansssen Pharmaceutica N.V., priority 2004, dated 2013)

Target: T1, β-secretase(BACE) (Homo sapiens, UniProt P56817)
T1 construct: purchased Panvera
Assay: BACE FS1% Inhibition Assay
Assay type: biochemical
Conditions: FS1 substrate; for % Inhibition (FS) 10 μM: 10 μM test compound; for inhibition at 0.3 µM / inhibition at 1 µM / inhibition at 3 µM: read-out: % Inhibition (FS)
Procedure: BACE FS1% Inhibition Assay The following reagents were used in this assay: sodium acetate, PEG8000 (Sigma), DMSO, HEPES, FS1 substrate [[…]] […] The FS1-substrate stock solution was prepared in DMSO as a 10 mg/mL solution. The FS1-substrate working solution was prepared by diluting the 10 mg/mL stock solution with substrate assay buffer to a final concentration of 300 μg/mL. The β-secretase (BACE) working solution was prepared by diluting a 0.83 mg/mL BACE stock solution with enzyme assay buffer to a final concentration of 4 μg/mL. Test compounds were dissolved in DMSO to 10 mM. […] The screening procedure for this assay was as follows: 15 μL of BACE working solution was pipetted into each well of a 96-well plate. To each well was then pipetted 2 μL of test compound at the selected concentration. Test compound and BACE were then mixed with a pipettor and incubated for 20 min at room temperature. To each well was then added 10 μL of the FS1 substrate working solution. The plates were then incubated for 1 hour at room temperature. […] The procedure for the blank was as follows. 15 μL of assay buffer was pipetted into each well to be used as a blank control. To each well was then added 2 μL of vehicle and 10 μL of FS1-substrate working solution. The plates were then incubated for 1 hour at room temperature. […] The procedure for the positive control was as follows: 15 μL of BACE working solution was pipetted into each well to be used as a positive control. To each well was then pipetted 2 μL of vehicle. Vehicle and BACE were then mixed with a pipettor and incubated for 20 min at room temperature. To each well was then added 10 μL of the FS1 substrate working solution. The plates were then incubated for 1 hour at room temperature. […] For test compounds, % inhibition was determined at each concentration as follows: [formula]

T1 sequence (P56817 46-501): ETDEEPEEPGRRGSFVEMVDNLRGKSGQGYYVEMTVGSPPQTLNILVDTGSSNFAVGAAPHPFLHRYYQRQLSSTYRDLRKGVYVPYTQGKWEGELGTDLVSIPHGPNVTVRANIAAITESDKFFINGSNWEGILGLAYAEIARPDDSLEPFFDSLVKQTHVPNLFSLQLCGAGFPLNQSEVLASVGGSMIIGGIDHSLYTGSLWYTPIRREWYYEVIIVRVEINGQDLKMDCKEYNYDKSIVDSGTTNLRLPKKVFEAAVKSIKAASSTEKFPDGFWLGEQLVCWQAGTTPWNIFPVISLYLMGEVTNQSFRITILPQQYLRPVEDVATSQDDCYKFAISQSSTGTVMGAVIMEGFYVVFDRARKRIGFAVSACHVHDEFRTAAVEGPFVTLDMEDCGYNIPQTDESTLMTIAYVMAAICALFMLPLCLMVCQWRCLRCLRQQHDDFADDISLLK

Structure (SMILES) | % Inhibition (FS) 0.3 μM (0.3 μM test compound) | % Inhibition (FS) 1 μM (1 μM test compound) | % Inhibition (FS) 3 μM (3 μM test compound) | other results
CN(C(=O)CC[C@@H](C1CCCCC1)N1Cc2cc(Oc3ccccc3)ccc2N=C1N)C1CCC(=O)CC1 [Compound 711] | – | – | – | % Inhibition (FS) (0.3 μM test compound): <30%; % Inhibition (FS) (1 μM test compound): 43%; % Inhibition (FS) (3 μM test compound): 113%
CCCC(=O)NCCN1Cc2cc(-c3ccccc3C)ccc2N=C1N [Compound 659] | 43% | 69% | 100% | –
CC(CC(=O)NCCN1Cc2cc(-c3ccccc3)ccc2N=C1N)C(F)(F)F (stereo not shown) [Compound 685] | – | – | – | % Inhibition (FS) (0.3 μM test compound): 50%; % Inhibition (FS) (1 μM test compound): 90%; % Inhibition (FS) (3 μM test compound): 101%
NC1=Nc2ccc(-c3ccccc3)cc2CN1CCNC(=O)C1CCC(C(F)(F)F)CC1 (stereo not shown) [Compound 701] | – | – | – | % Inhibition (FS) (0.3 μM test compound): <30%; % Inhibition (FS) (1 μM test compound): <30%; % Inhibition (FS) (3 μM test compound): 54%
CC(=O)Nc1ccc(C(=O)NCCN2Cc3cc(-c4ccccc4)ccc3N=C2N)cc1 [Compound 591] | <30% | <30% | <30% | –
Cc1ccc(Sc2ccc3c(c2)CN(Cc2cccc(C(=O)N(C)C4CCCCC4)c2)C(N)=N3)cc1C [Compound 408] | <30% | 34% | 95% | –
COc1ccccc1-c1ccc2c(c1)CN(CCNC(=O)C1(C(N)=O)CC1)C(N)=N2 [Compound 488] | <30% | <30% | <30% | –
NC1=Nc2ccc(Oc3c(F)cccc3F)cc2CN1CCC(=O)NC1C2CC3CC(C2)CC1C3 (stereo not shown) [Compound 529] | <30% | <30% | 66% | –
NC1=Nc2ccc(-c3cccc(CO)c3)cc2CN1CCNC(=O)Cc1ccccc1 [Compound 599] | <30% | <30% | 65% | –
COC1CCCC(C(=O)NCCN2Cc3cc(-c4ccccc4)ccc3N=C2N)C1 (stereo not shown) [Compound 703] | – | – | – | % Inhibition (FS) (0.3 μM test compound): <30%; % Inhibition (FS) (1 μM test compound): 46%; % Inhibition (FS) (3 μM test compound): 83%
CCCC=Cc1ccc2c(c1)CN(CCNC(=O)Cc1ccccc1)C(N)=N2 [Compound 596] | <30% | <30% | <30% | –
CCCCC(CC)C(=O)NCCN1Cc2cc(-c3ccccc3Cl)ccc2N=C1N (stereo not shown) [Compound 655] | 45% | 79% | 104% | –
NC1=Nc2ccc(Oc3ccccc3)cc2CN1Cc1cccc(N)c1 [Compound 811] | – | – | – | inhibition at 0.3 µM (0.3 μM test compound): < 30%; inhibition at 1 µM (1 μM test compound): < 30%; inhibition at 3 µM (3 μM test compound): < 30%
NC1=Nc2ccc(C3=CCCCC3)cc2CN1CCNC(=O)C1CCC(C(F)(F)F)CC1 (stereo not shown) [Compound 704] | – | – | – | % Inhibition (FS) (0.3 μM test compound): <30%; % Inhibition (FS) (1 μM test compound): <30%; % Inhibition (FS) (3 μM test compound): <30%
CN(C(=O)c1cccc(CN2Cc3cc(Br)ccc3N=C2N)c1)C1CCCCC1 [Compound 802] | – | – | – | inhibition at 0.3 µM (0.3 μM test compound): < 30%; inhibition at 1 µM (1 μM test compound): < 30%; inhibition at 3 µM (3 μM test compound): 50%
CC(C)c1ccccc1Oc1ccc2c(c1)CN(CCC(=O)NC1C3CC4CC(C3)CC1C4)C(N)=N2 (stereo not shown) [Compound 466] | <30% | <30% | 53% | –
NC1=Nc2ccc(Oc3ccccc3)cc2CN1CCNC(=O)c1ccc(-c2ccccc2)cc1 [Compound 195] | <30% | <30% | <30% | –
CCOC(=O)C1CCC(N(C)C(=O)CCC(C2CCCCC2)N2Cc3cc(Oc4ccccc4)ccc3N=C2N)CC1 (stereo not shown) [Compound 763] | – | – | – | % Inhibition (FS) (0.3 μM test compound, 0.3 µM): <30%; % Inhibition (FS) (1 μM test compound, 1 µM): 84%; % Inhibition (FS) (3 μM test compound, 3 µM): 109%
NC1=Nc2ccc(-c3ccc4ccccc4c3)cc2CN1CCNC(=O)CCC(F)(F)F [Compound 686] | – | – | – | % Inhibition (FS) (0.3 μM test compound): <30%; % Inhibition (FS) (1 μM test compound): 73%; % Inhibition (FS) (3 μM test compound): 80%
CC(C)(C)c1ccc(C(=O)NCCN2Cc3cc(Oc4ccccc4)ccc3N=C2N)cc1 [Compound 156] | – | – | <30% | % Inhibition (FS) 10 μM: 40%
CC(C)CCC(=O)NCCN1Cc2cc(-c3cnc4ccccc4c3)ccc2N=C1N [Compound 675] | – | – | – | % Inhibition (FS) (0.3 μM test compound): 35%; % Inhibition (FS) (1 μM test compound): <30%; % Inhibition (FS) (3 μM test compound): <30%
COc1ccccc1-c1ccc2c(c1)CN(CCNC(=O)C1CCC(C(F)(F)F)CC1)C(N)=N2 (stereo not shown) [Compound 698] | – | – | – | % Inhibition (FS) (0.3 μM test compound): <30%; % Inhibition (FS) (1 μM test compound): <30%; % Inhibition (FS) (3 μM test compound): 64%

Second part, led by results:

% Inhibition (FS) 0.3 μM (0.3 μM test compound) | % Inhibition (FS) 1 μM (1 μM test compound) | % Inhibition (FS) 3 μM (3 μM test compound) | Structure (SMILES) | other results
<30% | <30% | 32% | CC(C)N(C(=O)CCN1Cc2cc(Oc3ccccc3)ccc2N=C1N)C(C)C [Compound 181] | –
<30% | 36% | <30% | NC1=Nc2ccc(Oc3ccccc3)cc2CN1C1CCCN(C(=O)C2CCCCC2)C1 (stereo not shown) [Compound 611] | –
– | – | <30% | COc1ccc2c(c1)C(CC(=O)N(C)C1CCCCC1)CC2N1Cc2cc(Oc3ccccc3)ccc2N=C1N (stereo not shown) [Compound 146] | % Inhibition (FS) 10 μM: 39%
<30% | <30% | <30% | CC(C)N(C(=O)CC(C1CCCCC1)N1Cc2cc(Oc3ccccc3)ccc2N=C1N)C1CCCCC1 (stereo not shown) [Compound 200] | –
– | – | 42% | NC1=Nc2ccc(Oc3ccccc3)cc2CN1C1CCN(C(=O)C2CCCCC2)C1 (stereo not shown) [Compound 119] | % Inhibition (FS) 10 μM: 75%
<30% | 53% | 99% | CC(C)C(CC(=O)NC1C2CC3CC(C2)CC1C3)N1Cc2cc(Oc3ccccc3)ccc2N=C1N (stereo not shown) [Compound 402] | –
<30% | <30% | <30% | CC(C)C(CC(=O)N(C(C)C)C1CCCCC1)N1Cc2cc(Oc3ccccc3)ccc2N=C1N (stereo not shown) [Compound 202] | –
<30% | <30% | 58% | CCCC(CCC)C(=O)N1CCC(N2Cc3cc(Oc4ccccc4)ccc3N=C2N)CC1 [Compound 523] | –
<30% | <30% | 82% | CN(C(=O)CC(C1CCCCC1)N1Cc2cc(Oc3ccccc3)ccc2N=C1N)C1CCCCC1 (stereo not shown) [Compound 199] | –
<30% | <30% | 38% | CCCCCC1CCC(C(=O)NCCN2Cc3cc(Oc4ccccc4)ccc3N=C2N)CC1 (stereo not shown) [Compound 182] | –
<30% | – | – | NC1=Nc2ccc(-c3ccc(F)cc3)cc2CN1CCNC(=O)C1CCCCC1 [Compound 624] | % Inhibition (FS) 1 μM (1 μM test compound, 1 µM): 38%; % Inhibition (FS) 3 μM (3 μM test compound, 3 µM): 78%
<30% | <30% | <30% | CC(C)Oc1ccc2c(c1)CN(Cc1cccc(C(=O)N(C)C3CCCCC3)c1)C(N)=N2 [Compound 519] | –
– | – | 40% | NC1=Nc2ccc(Oc3ccccc3)cc2CN1CCCCNC(=O)C1CCCCC1 [Compound 115] | % Inhibition (FS) 10 μM: 105%
<30% | <30% | <30% | CCCCCOc1ccc2c(c1)CN(Cc1cccc(C(=O)N(C)C3CCCCC3)c1)C(N)=N2 [Compound 516] | –
<30% | <30% | 32% | CCCN(CC1CC1)C(=O)c1cccc(CN2Cc3cc(Oc4ccccc4)ccc3N=C2N)c1 [Compound 197] | –
<30% | <30% | 56% | NC1=Nc2ccc(-c3ccc(Cl)cc3)cc2CN1CCNC(=O)C1CCCCC1 [Compound 626] | –
<30% | <30% | <30% | C[C@@H](CNC(=O)C1CCCCC1)N1Cc2cc(Oc3ccccc3)ccc2N=C1N [Compound 486] | –
<30% | <30% | 46% | NC1=Nc2ccc(Oc3ccccc3)cc2CN1Cc1cccc(CNC(=O)C2CCCCC2)c1 [Compound 306] | –
– | – | 39% | NC1=Nc2ccc(Oc3ccccc3)cc2CN1CCCNC(=O)C1CCC1 [Compound 144] | % Inhibition (FS) 10 μM: 59%
<30% | <30% | 38% | C=CCc1cccc(C)c1Oc1ccc2c(c1)CN(Cc1cccc(C(=O)N(C)C3CCCCC3)c1)C(N)=N2 [Compound 480] | –
<30% | 46% | 88% | CC1CCC(C(=O)NCCN2Cc3cc(Oc4ccccc4)ccc3N=C2N)CC1 (stereo not shown) [Compound 191] | –
